Where no end group is shown, it is not given here.
Columns and labels:
[1] = tested on: A. baumannii ATCC 19606; type: cell-based, Acinetobacter baumannii; conditions: ATCC 19606, 24 h
Protocol: (§1) Fig. 2 Antimicrobial activity and secondary structure of computationally designed peptides. a, Structure prediction of the synthesized peptides. b, Heatmap of the antimicrobial activities of the peptides against 11 clinically relevant pathogens, including four strains resistant to conventional antibiotics. Briefly, 10^6 bacterial cells and serially diluted peptides (1-64 μmol l^−1) were incubated at 37 °C. One day after treatment, the optical density at 600 nm was measured in a microplate reader to evaluate bacterial growth in the presence of the peptides. MIC values in the heatmap are the mode of the replicates in each condition. c–f, Ternary plots showing the percentage of secondary structure for each peptide (at 50 μmol l^−1) in four different solvents: water (c), 60% TFE in water (d), 10 mmol l^−1 SDS in water (e) and 50% methanol (MeOH) in water (f). Secondary structure fractions were calculated using the BeStSel server. […] An error of one column cannot be fully excluded. / Panel b: AT1, AT2, AT3 and all blank cells print no number and are left out.
(§2) In this study, we used the following pathogenic bacterial strains: A. baumannii ATCC 19606, E. coli AIC221 (E. coli MG1655 phnE_2::FRT (control strain for AIC222)) and E. coli AIC222 (E. coli MG1655 pmrA53 phnE_2::FRT (polymyxin resistant; colistin-resistant strain)), Klebsiella pneumoniae ATCC 13883, Pseudomonas aeruginosa PAO1, P. aeruginosa PA14 and Staphylococcus aureus ATCC 12600. All pathogens were grown in Luria–Bertani (LB) broth and on LB agar. Pseudomonas isolation (P. aeruginosa strains) agar plates were exclusively used in the case of Pseudomonas species. In all the experiments, bacteria were inoculated from one isolated colony and grown overnight (16 h) in liquid medium at 37 °C. On the following day, inocula were diluted 1:100 in fresh media and incubated at 37 °C to mid-logarithmic phase.
(§3) Broth microdilution assays[64] were conducted to establish the MIC for each peptide. Peptides were added to untreated polystyrene 96-well microtiter plates and serially diluted twofold in sterile water, ranging from 1 to 64 μmol l^−1. A bacterial inoculum at a concentration of 10^6 CFU ml^−1 in LB medium was then mixed in a 1:1 ratio with the peptide solution. […] Each assay was performed in three independent replicates.

[2] = tested on: K. pneumoniae ATCC 13883; type: cell-based, Klebsiella pneumoniae; conditions: ATCC 13883, 24 h
Protocol: as §1, §2, §3

[3] = tested on: S. aureus ATCC 12600; type: cell-based, Staphylococcus aureus; conditions: ATCC 12600, 24 h
Protocol: as §1, with “out. […]” for “out.”

[4] = tested on: E. faecium ATCC 700221 - VRE; type: cell-based; conditions: ATCC 700221, 24 h
Protocol: as §1, §3

[5] = tested on: S. aureus ATCC BAA-1556 - MRSA; type: cell-based; conditions: ATCC BAA-1556, 24 h
Protocol: as §1, §3

[6] = tested on: HEK293T cells; assay: Cytotoxicity, MTT assay; type: cell-based, human; conditions: 24 h
Protocol: Fig. 3 Mechanism of action and cytotoxic activity of designed peptides. a, To assess whether the peptides act on bacterial membranes, all active peptides against A. baumannii American Type Culture Collection (ATCC) 19606 were subjected to outer-membrane permeabilization, and peptides active against A. baumannii ATCC 19606 and vancomycin-resistant E. faecalis ATCC 700802 were tested in cytoplasmic-membrane depolarization assays. b, The fluorescent probe NPN was used to assess membrane permeabilization induced by the tested peptides. c,d, The fluorescent probe DiSC3-5 was used to evaluate membrane depolarization caused by the designed peptides in A. baumannii ATCC 19606 (c) and vancomycin-resistant E. faecalis ATCC 700802 (d). […] All experiments were performed in three independent replicates. Panel a created with BioRender.com. Source data TEXT PRINTED IN THE PICTURE: (e) AT1: CC50 (μmol l^-1), HEK293T cells: 2,758 | (e) AT2: CC50 (μmol l^-1), HEK293T cells: 2 × 10^37 | (e) AT3: CC50 (μmol l^-1), HEK293T cells: 269 | (e) AT4: CC50 (μmol l^-1), HEK293T cells: 3,015 | (e) AT5: CC50 (μmol l^-1), HEK293T cells: 6 × 10^41 | (e) NE1: CC50 (μmol l^-1), HEK293T cells: 6 × 10^33 | (e) NE2: CC50 (μmol l^-1), HEK293T cells: 507 | (e) NE3: CC50 (μmol l^-1), HEK293T cells: 655 | (e) NE4: CC50 (μmol l^-1), HEK293T cells: 2 × 10^32 | (e) NG1: CC50 (μmol l^-1), HEK293T cells: 351 | (e) NG2: CC50 (μmol l^-1), HEK293T cells: 1 × 10^35 | (e) NG3: CC50 (μmol l^-1), HEK293T cells: 2 × 10^46 DOUBTS OF THE COPYIST ABOUT THIS PICTURE: AT2, CC50: small exponent, 37 or 57 / AT5, CC50: small exponent, 41 uncertain / NE1, CC50: small exponent, 33 or 38 / NE4, CC50: small exponent, 32 or 52 / NG2, CC50: small exponent, 35 or 36 / NG3, CC50: small exponent, 46 or 48 […]
HEK293T cells were obtained from the ATCC (CRL-3216). The cells were cultured in high-glucose DMEM supplemented with 1% penicillin and streptomycin (antibiotics) and 10% fetal bovine serum and grown at 37 °C in a humidified atmosphere containing 5% CO2.
One day before the experiment, an aliquot of 100 μl of the cells at 50,000 cells ml^−1 was seeded into each well of the cell-treated 96-well plates used in the experiment (that is, 5,000 cells per well)[45]. The attached HEK293T cells were then exposed to increasing concentrations of the peptides (4–64 μmol l^−1) for 24 h. After the incubation period, we performed the (3-(4,5-dimethylthiazol-2-yl)-2,5-diphenyltetrazolium bromide) tetrazolium reduction assay (MTT assay)[45]. […] The resulting salts were then resuspended in hydrochloric acid (0.04 mol l^−1) in anhydrous isopropanol and quantified by spectrophotometric measurements of absorbance at 570 nm. […]

## FRLAAVLHFHIH [AT4]
[1]
  MIC: 32 µM
[2]
  MIC: 8 µM
[3]
  MIC: 64 µM
[4]
  MIC: 32 µM
[5]
  MIC: 16 µM
[6]
  CC50, cytotoxic concentration leading to 50% cell lysis: 3.015 mM
